From patent US20260098054A1, “COMPOSITIONS AND METHODS FOR CONSTRUCTING CONJUGATES” (priority 2022, published 2026)
Non-standard residues stand in square brackets, D forms with d. Pen = CC(C)(S)[C@H](N)C(=O)O

What was measured:
[1] = Stability test of conjugates (checked by LCMS); type: physicochemical; details: 5% ACN in H2O or 5% ACN in PBS pH 7.4, 0.5 mM, room temperature or 37° C., LCMS after 24 h and 48 h
Description: FIGS. 5A-5C are line graphs of stability test and biological evaluations of PDC 1-6. […] The compound was checked by LCMS after 24 h and 48 h.

HEK-293T cells = test: In vitro cytotoxicity assay (CCK-8) in HEK-293T cells; details: for cytotoxicity in words (ranking among the six compounds): HEK-293T, CCK-8, PDCs 1-6
Description: (§1) Cells were plated in 96-well microplates at a density of 5×10^4 cells/well for 24 h for attachment, 90 μl of DMEM with 10% FBS and 100 U/mL P/Swas added to each well. PDCs 1-6 were first dissolved in DMSO respectively, at a concentration of 10 mM, followed by serial dilution in culture medium to achieve different concentrations as specified. For U87-MG cells, the concentration of compounds administered ranged from 1.37 to 27000 nM. While for HEK-293T cells, the concentration of compounds administered ranged from 0.03 to 1000 nM. The cells treated with the compounds were then incubated for 48 h. 10 μl of CCK-8 solution was then added to each well and incubated for 30 min. Absorbance was acquired at 450 nm using a spectrophotometer (Synergy HTX, Biotek). Three experiments were performed separately in triplicates and the data was processed using the GraphPad Prism (GraphPad Software, La Jolla, CA).
(§2) Next, the biological activities of these conjugates were evaluated.
The peptide-drug conjugates were tested on the negative control cell line.

U87-MG cells = test: In vitro cytotoxicity assay (CCK-8) in U87-MG cells; details: U87-MG (high αvβ3 integrin), 48 h incubation, fold of free DM1 activity
Description: as §1, §2
Then, the in vitro antitumor efficacy of PDCs 1-6 was examined by CCK-8 assay (FIG. 5B). The IC50 of free DM1 and its conjugates were compared internally within the same cell line, to determine the potency of the six compounds.

αvβ3 integrin = αvβ3 integrin (Homo sapiens, UniProt P05106+P06756); details: Kapp, et al., Sci. Rep. 2017; cited from earlier work
Chain of αvβ3 integrin (P06756 31-1048): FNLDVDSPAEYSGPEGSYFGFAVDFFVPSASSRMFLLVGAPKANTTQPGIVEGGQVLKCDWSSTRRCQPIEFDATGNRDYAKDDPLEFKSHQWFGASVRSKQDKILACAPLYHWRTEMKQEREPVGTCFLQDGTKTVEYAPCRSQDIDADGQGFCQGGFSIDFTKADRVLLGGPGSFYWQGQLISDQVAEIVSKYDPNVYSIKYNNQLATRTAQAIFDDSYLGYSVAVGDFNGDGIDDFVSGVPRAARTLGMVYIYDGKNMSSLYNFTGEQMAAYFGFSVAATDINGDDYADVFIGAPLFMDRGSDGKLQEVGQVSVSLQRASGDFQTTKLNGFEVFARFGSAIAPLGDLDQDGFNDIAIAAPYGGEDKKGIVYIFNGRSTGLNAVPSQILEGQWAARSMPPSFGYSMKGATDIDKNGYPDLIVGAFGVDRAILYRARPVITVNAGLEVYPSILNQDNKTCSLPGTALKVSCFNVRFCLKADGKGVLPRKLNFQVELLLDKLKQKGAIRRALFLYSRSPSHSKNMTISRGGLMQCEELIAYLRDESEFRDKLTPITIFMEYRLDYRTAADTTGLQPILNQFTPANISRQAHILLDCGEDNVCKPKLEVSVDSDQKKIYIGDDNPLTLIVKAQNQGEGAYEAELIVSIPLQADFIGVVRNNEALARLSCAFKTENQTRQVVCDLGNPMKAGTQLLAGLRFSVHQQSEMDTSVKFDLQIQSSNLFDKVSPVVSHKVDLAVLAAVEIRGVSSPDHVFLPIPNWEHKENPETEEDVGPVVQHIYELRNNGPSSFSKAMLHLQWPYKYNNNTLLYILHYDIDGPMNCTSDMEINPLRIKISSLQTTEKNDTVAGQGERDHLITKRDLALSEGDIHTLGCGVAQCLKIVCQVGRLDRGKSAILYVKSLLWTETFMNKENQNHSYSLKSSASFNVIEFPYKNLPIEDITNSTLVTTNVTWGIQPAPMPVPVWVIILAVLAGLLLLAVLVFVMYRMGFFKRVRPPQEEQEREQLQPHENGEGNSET
Chain of αvβ3 integrin (P05106 27-788): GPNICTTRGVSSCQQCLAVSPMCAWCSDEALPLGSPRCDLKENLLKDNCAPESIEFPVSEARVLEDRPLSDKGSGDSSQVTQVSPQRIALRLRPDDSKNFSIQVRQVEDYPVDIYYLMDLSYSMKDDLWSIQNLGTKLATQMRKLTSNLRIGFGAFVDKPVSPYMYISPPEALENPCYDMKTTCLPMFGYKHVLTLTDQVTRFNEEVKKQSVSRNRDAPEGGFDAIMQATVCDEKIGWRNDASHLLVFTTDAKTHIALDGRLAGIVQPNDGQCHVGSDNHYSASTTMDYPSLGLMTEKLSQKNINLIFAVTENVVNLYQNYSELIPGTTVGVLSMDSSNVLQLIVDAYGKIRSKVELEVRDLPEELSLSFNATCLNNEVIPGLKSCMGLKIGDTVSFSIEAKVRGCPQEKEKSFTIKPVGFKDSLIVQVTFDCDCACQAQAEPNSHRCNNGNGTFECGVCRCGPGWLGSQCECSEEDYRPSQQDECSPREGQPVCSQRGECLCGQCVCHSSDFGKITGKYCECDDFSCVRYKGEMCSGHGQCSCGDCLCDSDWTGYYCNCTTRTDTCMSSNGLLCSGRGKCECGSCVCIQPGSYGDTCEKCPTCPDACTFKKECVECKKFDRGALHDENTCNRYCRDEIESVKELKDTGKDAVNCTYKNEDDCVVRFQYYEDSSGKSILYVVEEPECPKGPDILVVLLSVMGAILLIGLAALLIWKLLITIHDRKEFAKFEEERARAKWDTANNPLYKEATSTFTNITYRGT

integrin αvβ3 = integrin αvβ3 (UniProt P06756 31-1048; P05106 27-788); test: cell-based or functional assay
Chain of integrin αvβ3 (P06756 31-1048, chain 1 of 2): as the sequence (P06756 31-1048) above
Chain of integrin αvβ3 (P05106 27-788, chain 2 of 2): as the sequence (P05106 27-788) above

Molecule: COc1cc2cc(c1Cl)N(C)C(=O)C[C@H](OC(=O)[C@H](C)N(C)C(=O)CCSSCCn1cc3ccccc3c1SC(C)(C)[C@@H]1NC(=O)[C@@H](Cc3ccccc3)NC(=O)[C@H](CC(=O)O)NC(=O)CNC(=O)[C@H](CCCNC(=N)N)NC1=O)[C@]1(C)O[C@H]1[C@H](C)[C@@H]1C[C@@](O)(NC(=O)O1)[C@H](OC)/C=C/C=C(\C)C2 [PDC-3]
- stability compared to PDC-1 (FIG. 5A) [1]: improved stability
- cytotoxicity as fold of the activity of DM1 (HEK-293T cells; HEK-293T (low αvβ3 integrin, negative control), 48 h incubation, CCK-8): 0.31 fold
- cytotoxicity in words (ranking among the six compounds) (HEK-293T cells): relatively better activity among the six compounds
- cytotoxicity compared to free DM1 (IC50 compared within the same cell line) (U87-MG cells): 5.95 fold

Molecule: COc1cc2cc(c1Cl)N(C)C(=O)C[C@H](OC(=O)[C@H](C)N(C)C(=O)CCSSCCn1cc3ccccc3c1SC(C)(C)[C@@H]1NC(=O)[C@@H](Cc3ccccc3)NC(=O)[C@H](CCC(=O)O)NC(=O)CNC(=O)[C@H](CCCNC(=N)N)NC1=O)[C@]1(C)O[C@H]1[C@H](C)[C@@H]1C[C@@](O)(NC(=O)O1)[C@H](OC)/C=C/C=C(\C)C2 [PDC-6]
- cytotoxicity in words (ranking among the six compounds) (HEK-293T cells): relatively better activity among the six compounds
- cytotoxicity compared to free DM1 (IC50 compared within the same cell line) (U87-MG cells): 0.48 fold

Molecule: c [c [RGDfV]]
- increase of binding affinity compared to the linear RGD tripeptide (αvβ3 integrin): 58 fold

Molecule: COc1cc2cc(c1Cl)N(C)C(=O)C[C@H](OC(=O)[C@H](C)N(C)C(=O)CCSc1c3ccccc3cn1CCCC[C@@H]1NC(=O)[C@@H](Cc3ccccc3)NC(=O)[C@H](CCC(=O)O)NC(=O)CNC(=O)[C@H](CCCNC(=N)N)NC1=O)[C@]1(C)O[C@H]1[C@H](C)[C@@H]1C[C@@](O)(NC(=O)O1)[C@H](OC)/C=C/C=C(\C)C2 [PDC-5]
- cytotoxicity compared to free DM1 (IC50 compared within the same cell line) (U87-MG cells): 0.49 fold

Molecule: COc1cc2cc(c1Cl)N(C)C(=O)C[C@H](OC(=O)[C@H](C)N(C)C(=O)CCSc1c3ccccc3cn1CCCC[C@@H]1NC(=O)[C@@H](Cc3ccccc3)NC(=O)[C@H](CC(=O)O)NC(=O)CNC(=O)[C@H](CCCNC(=N)N)NC1=O)[C@]1(C)O[C@H]1[C@H](C)[C@@H]1C[C@@](O)(NC(=O)O1)[C@H](OC)/C=C/C=C(\C)C2 [PDC-1, OPA-c [RGDfK]-DM1]
- cytotoxicity compared to free DM1 (IC50 compared within the same cell line) (U87-MG cells): 0.85 fold

Molecule: c [c [RGDfK]]
- increase of binding affinity compared to the linear RGD tripeptide (αvβ3 integrin): 39 fold

Molecule: cyclo(RGD[dF]K(Pen)) (not fully specified) [PDC-4]
- cytotoxicity (CCK-8 assay) in U87-MG cells, fold against free DM1 (integrin αvβ3): 1.29 fold
- cytotoxicity (CCK-8 assay) in the αvβ3-negative cell line HEK-293T, fold of the activity of DM1 (integrin αvβ3): 0.16 fold
